Data as given in patent publication US10004761B2, “Malodor neutralizing composition” (priority 2016, dated 2018).

Test system: chondroitinase ABC
Test: HA gelation consistency (Method III) in the presence of Chondroitinase ABC
Assay type: biochemical, Proteus vulgaris
Details: Table 4: NAC 400 mg dry powder (20% final), HA 2 cc of 1%, Chondroitinase ABC 50 μL, 37° C.; cell wraps: Viscous liquid
Method: Method III (Viscosity of HA): HA at low concentrations (e.g., 1%) in aqueous solution forms a viscous colloidal hydrogel solution, which yields semi-solid gel particles at room temperature and a solid gel at 4° C.
HA degradation was evaluated using Method III, as described hereinabove.
HA state of gelation was studied in the presence of NAC and various HA-degrading enzymes, using the following Stock solutions:
The tested enzyme (50 μL) was placed in a tube, NAC (50 μL of the Stock solution, final concentration of about 3.3%) was added and the mixture was incubated for 2 hours at room temperature (23° C.). Then, 2 ml of HA 1% were added to each tube and tubes were further incubated at room temperature for additional 24 hours.
In a second set of experiments, NAC (50 μL of the Stock solution) was added to a tube containing 2 ml of HA 1%; and the tubes were incubated for 2 hours at room temperature. Then, the HA-degrading enzyme was added and tubes were incubated at room temperature for additional 24 hours. In control tubes 9 and 10 (containing only HA), 50 μL of water were added to achieve the same volume as the other tested tubes.
In another set of experiments, the effect of NAC powder, (at a final concentration of 20%), on HA gelation in the presence of Hyase or Chondroitinase ABC was tested. […]

CC(=O)N[C@@H](CS)C(=O)O [NAC, N-acetyl L-cysteine]
Consistency: Viscous
